experiment: recombinant UMI read abundance after kanamycin selection (control-corrected) (log10(CPM+1)); higher = more efficient recombination; extreme values may be limits of the assay; sequences stand for … in AGTGCAGAGAAAATCGGCCAGTTTTCTCTGCCTGCAGTCCGCATGCCGTGGGACCCCTTGGGTTCTAACCTGTTGCCTAGATTTATGCAGCGGACTGCCTTTCTCCCAAAGTGATAAACCGG…AGGTTGGTTTCACT; site = the 11-nt donor
Summary of the method: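 In a pooled Escherichia coli screen for the IS621 bridge recombinase, donor and donor-binding-loop pairs were each placed with a 12-nt UMI on a plasmid bearing a promoterless kanamycin gene. This library was co-electroporated with a target plasmid encoding a fixed target and T7-inducible recombinase, and cells were plated either on IPTG (0.07 mM) plus kanamycin or without selection, in two replicates each. Recombinant UMIs were PCR-amplified across the donor–target junction and sequenced, and counts were converted to CPM, averaged over replicates, scaled by control-derived factors and reported as log10(CPM+1).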
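Also: IS621 bridge recombinase in Escherichia coli cells against a fixed T5 target plasmid.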

Sequence	recombinant UMI read abundance (log10)
TATTTTGCATGGACCGGTTTTCCCGGTAATCCGTATTTGTG (site TATTTTGCTCA)	0.00898
TCAATTTCATGGACCGGTTTTCCCGGTAATCCGTATTTGGC (site TCAATTTCTGC)	0
TCACACTCATGGACCGGTTTTCCCGGTAATCCGTATTTGAT (site TCACACTCTAT)	2.38
TCACAGCCATGGACCGGTTTTCCCGGTAATCCGTATTTGCA (site TCACAGCCTTG)	0.816
TCACCTGCATGGACCGGTTTTCCCGGTAATCCGTATTTGCG (site TCACCTGCTCG)	0.016
TCACCTGCATGGACCGGTTTTCCCGGTAATCCGTATTTGTT (site TCACCTGCTAA)	0.063
TCACGCACATGGACCGGTTTTCCCGGTAATCCGTATTTGCT (site TCACGCACTAG)	1.97
TCACGTACATGGACCGGTTTTCCCGGTAATCCGTATTTGAT (site TCACGTACTAT)	0.589
TCACGTCCATGGACCGGTTTTCCCGGTAATCCGTATTTGGC (site TCACGTCCTGC)	0
TCAGACTCATGGACCGGTTTTCCCGGTAATCCGTATTTGCA (site TCAAACTCTTG)	0.771
TCAGACTCATGGACCGGTTTTCCCGGTAATCCGTATTTGCA (site TCACACTCTTG)	1.19
TCAGACTCATGGACCGGTTTTCCCGGTAATCCGTATTTGCA (site TCAGACTCTTG)	2.95
TCAGACTCATGGACCGGTTTTCCCGGTAATCCGTATTTGCA (site TCATACTCTTG)	0.807
TCAGATACATGGACCGGTTTTCCCGGTAATCCGTATTTGGC (site TCAGATACTGC)	0
TCAGCATCATGGACCGGTTTTCCCGGTAATCCGTATTTGCA (site ACAGTATCTTG)	0.8
TCAGCATCATGGACCGGTTTTCCCGGTAATCCGTATTTGCA (site TCAGCATCTTG)	0.224
TCAGCCTCATGGACCGGTTTTCCCGGTAATCCGTATTTGAT (site TCAGCCTCTAT)	1.36
TCAGCGACATGGACCGGTTTTCCCGGTAATCCGTATTTGCG (site TCAGAGACTCG)	0.00361
TCAGCGACATGGACCGGTTTTCCCGGTAATCCGTATTTGCG (site TCAGCGACTCG)	1.37

Sequence	recombinant UMI read abundance (log10)
TCAGCGACATGGACCGGTTTTCCCGGTAATCCGTATTTGCG (site TCAGGGACTCG)	0.0187
TCAGCGACATGGACCGGTTTTCCCGGTAATCCGTATTTGCG (site TCAGTGACTCG)	0.00864
TCAGCTGCATGGACCGGTTTTCCCGGTAATCCGTATTTGTG (site TAAGCTGCTCA)	0.0147
TCAGCTGCATGGACCGGTTTTCCCGGTAATCCGTATTTGTG (site TCAGCTGCTCA)	0.637
TCAGCTGCATGGACCGGTTTTCCCGGTAATCCGTATTTGTG (site TGAGCTGCTCA)	0.00568
TCAGCTGCATGGACCGGTTTTCCCGGTAATCCGTATTTGTG (site TTAGCTGCTCA)	0.0047
TCAGGCACATGGACCGGTTTTCCCGGTAATCCGTATTTGGC (site TCAGGCACTGC)	0.89
TCAGGGACATGGACCGGTTTTCCCGGTAATCCGTATTTGCG (site TCAGAGACTCG)	0.74
TCAGGGACATGGACCGGTTTTCCCGGTAATCCGTATTTGCG (site TCAGCGACTCG)	0.0114
TCAGGGACATGGACCGGTTTTCCCGGTAATCCGTATTTGCG (site TCAGGGACTCG)	1.03
TCAGGGACATGGACCGGTTTTCCCGGTAATCCGTATTTGCG (site TCAGTGACTCG)	0.0229
TCAGTAACATGGACCGGTTTTCCCGGTAATCCGTATTTGTA (site TCAGTAACTTA)	1.71
TCAGTAGCATGGACCGGTTTTCCCGGTAATCCGTATTTGGC (site TCAGTAGCTGC)	1.54
TCAGTTCCATGGACCGGTTTTCCCGGTAATCCGTATTTGAA (site TCAGTTCCTTT)	0.398
TCAGTTTCATGGACCGGTTTTCCCGGTAATCCGTATTTGCA (site ACAGTATCTTG)	0.0288
TCAGTTTCATGGACCGGTTTTCCCGGTAATCCGTATTTGCA (site TCAGTTTCTTG)	1.14
TCATACACATGGACCGGTTTTCCCGGTAATCCGTATTTGCA (site TCATACACTTG)	2.45
TCATACACATGGACCGGTTTTCCCGGTAATCCGTATTTGCA (site TCATACCCTTG)	0.302
TCATACACATGGACCGGTTTTCCCGGTAATCCGTATTTGCA (site TCATACGCTTG)	1.36

Sequence	recombinant UMI read abundance (log10)
TCATACACATGGACCGGTTTTCCCGGTAATCCGTATTTGCA (site TCATACTCTTG)	1.5
TCATACCCATGGACCGGTTTTCCCGGTAATCCGTATTTGTG (site TCATACCCTCA)	0
TCATACTCATGGACCGGTTTTCCCGGTAATCCGTATTTGGA (site TCATACTCTTA)	0.26
TCATACTCATGGACCGGTTTTCCCGGTAATCCGTATTTGGA (site TCATACTCTTC)	1.76
TCATACTCATGGACCGGTTTTCCCGGTAATCCGTATTTGGA (site TCATACTCTTG)	0
TCATACTCATGGACCGGTTTTCCCGGTAATCCGTATTTGGA (site TCATACTCTTT)	1.17
TCATACTCATGGACCGGTTTTCCCGGTAATCCGTATTTGTA (site TCATACTCTTA)	1.51
TCATACTCATGGACCGGTTTTCCCGGTAATCCGTATTTGTA (site TCATACTCTTC)	0.00471
TCATACTCATGGACCGGTTTTCCCGGTAATCCGTATTTGTA (site TCATACTCTTG)	0
TCATACTCATGGACCGGTTTTCCCGGTAATCCGTATTTGTA (site TCATACTCTTT)	0.299
TCATAGACATGGACCGGTTTTCCCGGTAATCCGTATTTGAC (site TCATAGACTGT)	0.421
TCATAGGCATGGACCGGTTTTCCCGGTAATCCGTATTTGTT (site TCATAGGCTAA)	1.27
TCATAGTCATGGACCGGTTTTCCCGGTAATCCGTATTTGCA (site TCATAATCTTG)	2.41
TCATAGTCATGGACCGGTTTTCCCGGTAATCCGTATTTGCA (site TCATACTCTTG)	0.653
TCATAGTCATGGACCGGTTTTCCCGGTAATCCGTATTTGCA (site TCATAGTCTTG)	2.25
TCATAGTCATGGACCGGTTTTCCCGGTAATCCGTATTTGCA (site TCATATTCTTG)	0
TCATCCTCATGGACCGGTTTTCCCGGTAATCCGTATTTGAA (site TCATCCTCTTT)	1.05
TCATCGTCATGGACCGGTTTTCCCGGTAATCCGTATTTGAA (site TCATCGTCTTT)	0.467
TCATGCCCATGGACCGGTTTTCCCGGTAATCCGTATTTGGC (site TCATGCCCTGC)	0

Reference: the supplement of paper PMC11208160
